Data as given in patent publication US9302999B2, “Substituted triazoles as herbicides” (E. I. DU PONT DE NEMOURS AND COMPANY, priority 2012, dated 2016).

Key:
Format in all cases: in vivo
[1] = test system: foxtail, green (green foxtail Setaria viridis); experiment: Test F pre-/postemergence: foxtail, green; conditions: Preemergence
From the text: (§1) Seeds of plant species selected from corn (Zea mays), soybean (Glycine max), velvetleaf (Abutilon theophrasti), lambsquarters (Chenopodium album), poinsettia, wild (wild poinsettia, Euphorbia heterophylla), pigweed, palmer (palmer pigweed, Amaranthus palmeri), waterhemp (common waterhemp, Amaranthus rudis), surinam grass (Brachiaria decumbens), crabgrass, Brazil (Brazilian crabgrass, Digitaria horizontalis), panicum, fall (fall panicum Panicum dichotomiflorum), crabgrass, large (large crabgrass, Digitaria sanguinalis), foxtail, giant (giant foxtail, Setaria faberii), foxtail, green (green foxtail Setaria viridis), goosegrass (Eleusine indica), ragweed (common ragweed, Ambrosia elatior), barnyardgrass (Echinochloa crus-galli), sandbur (southern sandbur, Cenchrus echinatus), arrowleaf sida (Sida rhombifolia), ryegrass, Italian (Italian ryegrass, Lolium multiflorum), dayflower, VA (Virginia (VA) dayflower, Commelina virginica), field bindweed (Convolvulus arvensis), cocklebur (common cocklebur, Xanthium strumarium), morningglory (Ipomoea coccinea), nightshade (eastern black nightshade, Solanum ptycanthum), kochia (Kochia scoparia), nutsedge, yellow (yellow nutsedge, Cyperus esculentus), johnsongrass (Sorghum halepense), smartweed (ladysthumb smartweed, Polygonum persicaria), and beggarticks (hairy beggarticks, Bidens pilosa), were planted into a silt loam soil and treated preemergence with test chemicals formulated in a non-phytotoxic solvent mixture which included a surfactant. At the same time, plants selected from these crop and weed species and also pigweed (Amaranthus retroflexus), waterhemp_RES1 (ALS/Triazine resistant common waterhemp, Amaranthus rudis) and waterhemp_RES2 (ALS/HPPD resistant common waterhemp, Amaranthus rudis) were planted in pots containing a planting medium comprising spaghnum peat moss, vermiculite, wetting agent and starter nutrients treated with postemergence applications of some of the test chemicals formulated in the same manner. Plants ranged in height from 2 to 18 cm for postemergence treatments (1- to 4-leaf stage).
(§2) Treated plants and controls were maintained in a greenhouse for 14 to 21 days, after which time all species were compared to controls and visually evaluated. Plant response ratings, summarized in Table E, are based on a scale of 0 to 100 where 0 is no effect and 100 is complete control. A dash (-) response means no test result.

[2] = test system: poinsettia, wild (wild poinsettia, Euphorbia heterophylla); experiment: Test F pre-/postemergence: poinsettia, wild
From the text: as §1, §2

[3] = test system: kochia (Kochia scoparia); experiment: Test F pre-/postemergence: kochia; conditions: Preemergence
From the text: as §1, §2

[4] = test system: ducksalad (Heteranthera limosa); experiment: Test C flooded paddy test: ducksalad; conditions: scale 0 to 100 (0 no effect, 100 complete control)
Summary of the method: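 Plants at 2-leaf stage in pots flooded 3 cm above soil; compounds applied directly into the paddy water, depth maintained. Visual rating against controls after 13–15 days in greenhouse, scale 0 (no effect) to 100 (complete control).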

[5] = test system: field poppy (Papaver rhoeas); experiment: Test D pre-/postemergence: field poppy
From the text: (§3) Seeds of plant species selected from bluegrass (annual bluegrass, Poa annua), blackgrass (Alopecurus myosuroides), canarygrass (Phalaris minor), chickweed (common chickweed, Stellaria media), galium (catchweed bedstraw, Galium aparine), bromegrass, downy (downy bromegrass, Bromus tectorum), field poppy (Papaver rhoeas), field violet (Viola arvensis), foxtail, green (green foxtail, Setaria viridis), deadnettle (henbit deadnettle, Lamium amplexicaule), ryegrass, Italian (Italian ryegrass, Lolium multiflorum), kochia (Kochia scoparia), lambsquarters (Chenopodium album), oilseed rape (Brassica napus), pigweed (Amaranthus retroflexus), Russian thistle (Salsola iberica), chamomile (scentless chamomile, Matricaria inodora), speedwell (bird's-eye speedwell, Veronica persica), barley, spring (spring barley, Hordeum vulgare), wheat, spring (spring wheat, Triticum aestivum), buckwheat, wild (wild buckwheat, Polygonum convolvulus), mustard, wild (wild mustard, Sinapis arvensis), oat, wild (wild oat, Avena fatua), radish, wild (wild radish, Raphanus raphanistrum), windgrass (Apera spica-venti), barley, winter (winter barley, Hordeum vulgare), and wheat, winter (winter wheat, Triticum aestivum) were planted into a silt loam soil and treated preemergence with test chemicals formulated in a non-phytotoxic solvent mixture which included a surfactant. At the same time, these same crop and weed species were planted in pots containing the planting medium comprising spaghnum peat moss, vermiculite, wetting agent and starter nutrients and treated with postemergence applications of the test chemicals formulated in the same manner. Plants ranged in height from 2 to 18 cm (1- to 4-leaf stage).
as §2, with “controlled growth environment” for “greenhouse”, “days” for “days,”, “D,” for “E,”

[6] = test system: wheat, winter (winter wheat, Triticum aestivum); experiment: Test D pre-/postemergence: wheat, winter
Summary of the method: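 Visual control ratings (0–100) after 14–21 days, controlled environment. Preemergence on silt loam; postemergence on 2–18 cm plants.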

[7] = test system: galium (catchweed bedstraw, Galium aparine); experiment: Test D pre-/postemergence: galium
From the text: as §3
as §2, with “controlled growth environment” for “greenhouse”, “days” for “days,”, “D,” for “E,”

[8] = test system: pigweed (Amaranthus retroflexus); experiment: Test D pre-/postemergence: pigweed
From the text: as §3
as §2, with “controlled growth environment” for “greenhouse”, “days” for “days,”, “D,” for “E,”

[9] = 16 g ai/ha, scale 0 to 100, 0 no effect, 100 complete control
[10] = 31 g ai/ha, scale 0 to 100, 0 no effect, 100 complete control
[11] = Preemergence, 16 g ai/ha, scale 0 to 100, 0 no effect, 100 complete control
[12] = Preemergence, 31 g ai/ha, scale 0 to 100, 0 no effect, 100 complete control
[13] = Preemergence, 125 g ai/ha, scale 0 to 100
[14] = Preemergence, 250 g ai/ha, scale 0 to 100
[15] = Postemergence, 16 g ai/ha, scale 0 to 100
[16] = Flood (flooded paddy test), 125 g ai/ha, visual rating after 13 to 15 days
[17] = Flood (flooded paddy test), 250 g ai/ha, visual rating after 13 to 15 days
[18] = Postemergence, 31 g ai/ha, scale 0 to 100 (0 no effect, 100 complete control)
[19] = Postemergence, 62 g ai/ha, scale 0 to 100 (0 no effect, 100 complete control)
[20] = Postemergence, 125 g ai/ha, scale 0 to 100, 0 no effect, 100 complete control
[21] = Postemergence, 250 g ai/ha, scale 0 to 100 (0 no effect, 100 complete control)
[22] = Preemergence, 62 g ai/ha, scale 0 to 100

Structure (SMILES): COc1nn(-c2cccc(F)c2)nc1Cc1ccnc(C(F)(F)F)c1 [Compound 139]
- Plant response rating, Foxtail, Green [1, 9]: 10
- Plant response rating, Foxtail, Green [1, 10]: 35
- Plant response rating, Foxtail, Green ([1]; 62 g ai/ha, scale 0 to 100): 98
- Plant response rating, Foxtail, Green ([1]; 125 g ai/ha, scale 0 to 100): 100
- Plant response rating, Foxtail, Green ([1]; 250 g ai/ha, scale 0 to 100): 100
- Plant response rating, Poinsettia, Wild [2, 11]: 0
- Plant response rating, Poinsettia, Wild [2, 12]: 20
- Plant response rating, Poinsettia, Wild [2, 13]: 75
- Plant response rating, Poinsettia, Wild [2, 14]: 80
- Plant response rating, Kochia [3, 9]: 0
- Plant response rating, Kochia [3, 10]: 0
- Plant response rating, Kochia ([3]; 62 g ai/ha, scale 0 to 100): 35
- Plant response rating, Kochia ([3]; 125 g ai/ha, scale 0 to 100): 90
- Plant response rating, Kochia ([3]; 250 g ai/ha, scale 0 to 100): 98

Structure (SMILES): Cc1nn(-c2ccc(F)cc2F)nc1Oc1ccnc(C(F)(F)F)c1 [Compound 146]
- Plant response rating, Foxtail, Green [1, 9]: 20
- Plant response rating, Foxtail, Green [1, 10]: 20
- Plant response rating, Foxtail, Green ([1]; 62 g ai/ha, scale 0 to 100): 50
- Plant response rating, Foxtail, Green ([1]; 125 g ai/ha, scale 0 to 100): 100
- Plant response rating, Foxtail, Green ([1]; 250 g ai/ha, scale 0 to 100): 100
- Plant response rating, Poinsettia, Wild [2, 11]: 20
- Plant response rating, Poinsettia, Wild [2, 12]: 20
- Plant response rating, Poinsettia, Wild [2, 13]: 40
- Plant response rating, Poinsettia, Wild [2, 14]: 40
- Plant response rating, Kochia [3, 9]: 0
- Plant response rating, Kochia [3, 10]: 5
- Plant response rating, Kochia ([3]; 62 g ai/ha, scale 0 to 100): 30
- Plant response rating, Kochia ([3]; 125 g ai/ha, scale 0 to 100): 50
- Plant response rating, Kochia ([3]; 250 g ai/ha, scale 0 to 100): 98

Structure (SMILES): CCc1nn(-c2ccc(F)c(F)c2)nc1Oc1ccnc(C(F)(F)F)c1 [Compound 171]
- Plant response rating, Foxtail, Green [1, 9]: 20
- Plant response rating, Foxtail, Green [1, 10]: 50
- Plant response rating, Foxtail, Green ([1]; 62 g ai/ha, scale 0 to 100): 95
- Plant response rating, Foxtail, Green ([1]; 125 g ai/ha, scale 0 to 100): 100
- Plant response rating, Foxtail, Green ([1]; 250 g ai/ha, scale 0 to 100): 100
- Plant response rating, Poinsettia, Wild [2, 11]: 0
- Plant response rating, Poinsettia, Wild [2, 12]: 0
- Plant response rating, Poinsettia, Wild [2, 13]: 10
- Plant response rating, Poinsettia, Wild [2, 14]: 10
- Plant response rating, Kochia [3, 9]: 0
- Plant response rating, Kochia [3, 10]: 0
- Plant response rating, Kochia ([3]; 62 g ai/ha, scale 0 to 100): 5
- Plant response rating, Kochia ([3]; 125 g ai/ha, scale 0 to 100): 15
- Plant response rating, Kochia ([3]; 250 g ai/ha, scale 0 to 100): 98

Structure (SMILES): Cc1nn(-c2ccnc(Cl)c2)nc1Cc1ccnc(C(F)(F)F)c1 [Compound 141]
- Plant response rating, Poinsettia, Wild ([2]; Postemergence, 8 g ai/ha, scale 0 to 100): 60
- Plant response rating, Poinsettia, Wild [2, 15]: 80
- Plant response rating, Poinsettia, Wild ([2]; Postemergence, 31 g ai/ha, scale 0 to 100): 85
- Plant response rating, Poinsettia, Wild ([2]; Postemergence, 62 g ai/ha, scale 0 to 100): 95
- Plant response rating, Poinsettia, Wild ([2]; Postemergence, 125 g ai/ha, scale 0 to 100): 98

Structure (SMILES): Cc1nn(-c2ccc(C(F)(F)F)cc2)nc1Oc1ccnc(C(F)(F)F)c1 [Compound 120]
- Plant response rating, Ducksalad [4, 16]: 80
- Plant response rating, Ducksalad [4, 17]: 85
- Plant response rating, Ducksalad ([4]; Flood, 62 g ai/ha): 70
- Plant response rating: Field Poppy [5, 18]: 100
- Plant response rating: Field Poppy [5, 19]: 100
- Plant response rating: Field Poppy [5, 20]: 100
- Plant response rating: Field Poppy [5, 21]: 100
- Plant response rating, Field Poppy [5, 15]: 100
- Plant response rating, Field Poppy [5, 11]: 0
- Plant response rating, Field Poppy [5, 12]: 80
- Plant response rating, Field Poppy [5, 22]: 80
- Plant response rating, Field Poppy [5, 13]: 100
- Plant response rating, Field Poppy [5, 14]: 100
- Plant response rating: Wheat, Winter [6, 18]: 5
- Plant response rating: Wheat, Winter [6, 19]: 10
- Plant response rating: Wheat, Winter [6, 20]: 15
- Plant response rating: Wheat, Winter [6, 21]: 20
- Plant response rating, Wheat, Winter [6, 15]: 5
- Plant response rating, Wheat, Winter [6, 11]: 0
- Plant response rating, Wheat, Winter [6, 12]: 0
- Plant response rating, Wheat, Winter [6, 22]: 5
- Plant response rating, Wheat, Winter [6, 13]: 5
- Plant response rating, Wheat, Winter [6, 14]: 10
- Plant response rating: Galium [7, 18]: 60
- Plant response rating: Galium [7, 19]: 70
- Plant response rating: Galium [7, 20]: 98
- Plant response rating: Galium [7, 21]: 100
- Plant response rating, Galium [7, 15]: 50
- Plant response rating, Galium [7, 11]: 0
- Plant response rating, Galium [7, 12]: 15
- Plant response rating, Galium [7, 22]: 65
- Plant response rating, Galium [7, 13]: 100
- Plant response rating, Galium [7, 14]: 100
- Plant response rating: Pigweed [8, 18]: 90
- Plant response rating: Pigweed [8, 19]: 90
- Plant response rating: Pigweed [8, 20]: 100
- Plant response rating: Pigweed [8, 21]: 100
- Plant response rating, Pigweed [8, 15]: 0
- Plant response rating, Pigweed [8, 11]: 30
- Plant response rating, Pigweed [8, 12]: 100
- Plant response rating, Pigweed [8, 22]: 100
- Plant response rating, Pigweed [8, 13]: 100
- Plant response rating, Pigweed [8, 14]: 100

Structure (SMILES): Cc1nn(-c2ccc(C(F)(F)F)cn2)nc1Cc1cccc(C(F)(F)F)c1 [Compound 106]
- Plant response rating, Ducksalad [4, 16]: 70
- Plant response rating, Ducksalad [4, 17]: 70
- Plant response rating, Ducksalad ([4]; Flood, 31 g ai/ha): 0
- Plant response rating, Ducksalad ([4]; Flood, 62 g ai/ha): 60
- Plant response rating: Field Poppy [5, 18]: 100
- Plant response rating: Field Poppy [5, 19]: 100
- Plant response rating: Field Poppy [5, 20]: 100
- Plant response rating: Field Poppy [5, 21]: 100
- Plant response rating, Field Poppy [5, 15]: 100
- Plant response rating: Wheat, Winter [6, 18]: 5
- Plant response rating: Wheat, Winter [6, 19]: 5
- Plant response rating: Wheat, Winter [6, 20]: 5
- Plant response rating: Wheat, Winter [6, 21]: 5
- Plant response rating, Wheat, Winter [6, 15]: 5
- Plant response rating, Wheat, Winter [6, 12]: 0
- Plant response rating, Wheat, Winter [6, 22]: 0
- Plant response rating, Wheat, Winter [6, 13]: 0
- Plant response rating, Wheat, Winter [6, 14]: 0
- Plant response rating: Galium [7, 18]: 40
- Plant response rating: Galium [7, 19]: 40
- Plant response rating: Galium [7, 20]: 40
- Plant response rating: Galium [7, 21]: 60
- Plant response rating, Galium [7, 15]: 20
- Plant response rating, Galium [7, 12]: 0
- Plant response rating, Galium [7, 22]: 0
- Plant response rating, Galium [7, 13]: 40
- Plant response rating, Galium [7, 14]: 80
- Plant response rating: Pigweed [8, 18]: 50
- Plant response rating: Pigweed [8, 19]: 60
- Plant response rating: Pigweed [8, 20]: 90
- Plant response rating: Pigweed [8, 21]: 90
- Plant response rating, Pigweed [8, 15]: 10
- Plant response rating, Pigweed [8, 12]: 0
- Plant response rating, Pigweed [8, 22]: 0
- Plant response rating, Pigweed [8, 13]: 20
- Plant response rating, Pigweed [8, 14]: 40
